Measurements as given in ChEMBL document CHEMBL5344443, “Manzamine-A Alters In Vitro Calvarial Osteoclast Function” (J Nat Prod, 2024).
Calls of active or inactive are those of the source.

Legend:
Type in all cases: functional, cell-based
RAW264.7 [1] = test: Antiproliferative activity against mouse differentiated RAW 264.7 osteoclast cells assessed as reduction in cell viability incubated for 72 hrs by MTS viability assay; conditions: RAW264.7, 72 h
RAW264.7 [2] = test: Downregulation of Six1 mRNA expression in mouse differentiated RAW 264.7 osteoclasts cells at 120 uM incubated for 24 hrs by qRT-PCR analysis
RAW264.7 [3] = test: Disruption of differentiated mouse RAW 264.7 osteoclast assessed as reduction in cell density at 1.6 uM incubated for 72 hrs by TRAP staining
RAW264.7 [4] = test: Disruption of differentiated mouse RAW 264.7 osteoclast assessed as reduction in cell density at 1.6 uM incubated for 24 hrs by TRAP staining
RAW264.7 [5] = test: Disruption of differentiated mouse RAW 264.7 osteoclast assessed as reduction in cell density at 120 uM incubated for 48 hrs by TRAP staining
RAW264.7 [6] = test: Downregulation of Six1 mRNA expression in mouse differentiated RAW 264.7 osteoclasts cells at 47 uM incubated for 48 hrs by qRT-PCR analysis
RAW264.7 [7] = test: Disruption of differentiated mouse RAW 264.7 osteoclast assessed as reduction in cell density at 1.6 uM incubated for 48 hrs by TRAP staining
RAW264.7 [8] = test: Antiproliferative activity against mouse differentiated RAW 264.7 osteoclast cells assessed as reduction in cell viability incubated for 24 hrs by MTS viability assay; conditions: RAW264.7, 24 h
RAW264.7 [9] = test: Induction of apoptosis in mouse differentiated RAW 264.7 osteoclast cells at 1.6 uM incubated for 48 hrs by Caspase 3/7 assay
RAW264.7 [10] = test: Induction of apoptosis in mouse differentiated RAW 264.7 osteoclast cells at 1.6 uM incubated for 72 hrs by Caspase 3/7 assay
RAW264.7 [11] = test: Disruption of differentiated mouse RAW 264.7 osteoclast assessed as loss of osteoclast at 120 uM incubated for 48 hrs by TRAP staining
RAW264.7 [12] = test: Disruption of differentiated mouse RAW 264.7 osteoclast assessed as loss of osteoclast at 47 uM incubated for 48 hrs by TRAP staining
RAW264.7 [13] = test: Downregulation of Six1 mRNA expression in mouse RAW 264.7 preosteoclasts at 2.5 uM incubated for 24 hrs by qRT-PCR analysis
RAW264.7 [14] = test: Disruption of differentiated mouse RAW 264.7 osteoclast assessed as reduction in cell density at 120 uM incubated for 72 hrs by TRAP staining
RAW264.7 [15] = test: Disruption of differentiated mouse RAW 264.7 osteoclast assessed as reduction in cell density at 47 uM incubated for 72 hrs by TRAP staining
RAW264.7 [16] = test: Induction of apoptosis in mouse RAW 264.7 preosteoclast cells at 2.5 uM incubated for 24 hrs by Caspase 3/7 assay
RAW264.7 [17] = test: Disruption of differentiated mouse RAW 264.7 osteoclast assessed as loss of osteoclast at 47 uM incubated for 24 hrs by TRAP staining
RAW264.7 [18] = test: Disruption of differentiated mouse RAW 264.7 osteoclast assessed as reduction in cell density at 120 uM incubated for 24 hrs by TRAP staining
RAW264.7 [19] = test: Induction of apoptosis in mouse differentiated RAW 264.7 osteoclast cells at 47 uM incubated for 24 hrs by Caspase 3/7 assay
RAW264.7 [20] = test: Induction of apoptosis in mouse differentiated RAW 264.7 osteoclast cells at 120 uM incubated for 24 hrs by Caspase 3/7 assay
RAW264.7 [21] = test: Antiproliferative activity against mouse differentiated RAW 264.7 osteoclast cells assessed as reduction in cell viability incubated for 48 hrs by MTS viability assay; conditions: RAW264.7, 48 h
RAW264.7 [22] = test: Disruption of differentiated mouse RAW 264.7 osteoclast assessed as loss of osteoclast at 120 uM incubated for 72 hrs by TRAP staining
RAW264.7 [23] = test: Disruption of differentiated mouse RAW 264.7 osteoclast assessed as loss of osteoclast at 47 uM incubated for 72 hrs by TRAP staining
RAW264.7 [24] = test: Induction of apoptosis in mouse differentiated RAW 264.7 osteoclast cells at 120 uM incubated for 48 hrs by Caspase 3/7 assay
RAW264.7 [25] = test: Antiproliferative activity against mouse RAW 264.7 preosteoclast cells assessed as reduction in cell viability incubated for 24 hrs by MTS viability assay; conditions: RAW264.7, 24 h
RAW264.7 [26] = test: Disruption of differentiated mouse RAW 264.7 osteoclast assessed as reduction in cell density at 47 uM incubated for 48 hrs by TRAP staining
RAW264.7 [27] = test: Induction of apoptosis in mouse differentiated RAW 264.7 osteoclast cells at 47 uM incubated for 72 hrs by Caspase 3/7 assay
RAW264.7 [28] = test: Disruption of differentiated mouse RAW 264.7 osteoclast assessed as reduction in cell density at 47 uM incubated for 24 hrs by TRAP staining
RAW264.7 [29] = test: Induction of apoptosis in mouse differentiated RAW 264.7 osteoclast cells at 120 uM incubated for 72 hrs by Caspase 3/7 assay
RAW264.7 [30] = test: Antiproliferative activity against mouse RAW 264.7 preosteoclast cells assessed as reduction in cell viability incubated for 72 hrs by MTS viability assay; conditions: RAW264.7, 72 h
RAW264.7 [31] = test: Downregulation of Six1 mRNA expression in mouse differentiated RAW 264.7 osteoclasts cells at 47 uM incubated for 24 hrs by qRT-PCR analysis
RAW264.7 [32] = test: Induction of apoptosis in mouse differentiated RAW 264.7 osteoclast cells at 1.6 uM incubated for 24 hrs by Caspase 3/7 assay
RAW264.7 [33] = test: Antiproliferative activity against mouse RAW 264.7 preosteoclast cells assessed as reduction in cell viability incubated for 48 hrs by MTS viability assay; conditions: RAW264.7, 48 h
RAW264.7 [34] = test: Disruption of differentiated mouse RAW 264.7 osteoclast assessed as loss of osteoclast at 120 uM incubated for 24 hrs by TRAP staining
RAW264.7 [35] = test: Disruption of differentiated mouse RAW 264.7 osteoclast assessed as loss of osteoclast at 1.6 uM incubated for 48 hrs by TRAP staining
RAW264.7 [36] = test: Downregulation of Six1 mRNA expression in mouse RAW 264.7 preosteoclasts at 2.5 uM incubated for 48 hrs by qRT-PCR analysis
RAW264.7 [37] = test: Induction of apoptosis in mouse RAW 264.7 preosteoclast cells at 2.5 uM incubated for 72 hrs by Caspase 3/7 assay
RAW264.7 [38] = test: Disruption of differentiated mouse RAW 264.7 osteoclast assessed as loss of osteoclast at 1.6 uM incubated for 72 hrs by TRAP staining
RAW264.7 [39] = test: Downregulation of Six1 mRNA expression in mouse differentiated RAW 264.7 osteoclasts cells at 120 uM incubated for 48 hrs by qRT-PCR analysis
RAW264.7 [40] = test: Disruption of differentiated mouse RAW 264.7 osteoclast assessed as loss of osteoclast at 1.6 uM incubated for 24 hrs by TRAP staining

O[C@]12C=C(c3nccc4c3[nH]c3ccccc34)[C@@H]3CCN(CCCC/C=C\CC1)C[C@@]31C[C@@H]3/C=C\CCCCN3[C@H]12 [MANZAMINE A]
47 µM: IC50 (RAW264.7 [1])
120 µM: IC50 (RAW264.7 [21])
inactive: Activity (RAW264.7 [4]) | Activity (RAW264.7 [10]) | Activity (RAW264.7 [24]) | Activity (RAW264.7 [27]) | Activity (RAW264.7 [29]) | Activity (RAW264.7 [37]) | Activity (RAW264.7 [40])
2.2 µM: IC50 (RAW264.7 [33])
2.5 µM: IC50 (RAW264.7 [25])
1.6 µM: IC50 (RAW264.7 [8])
1.9 µM: IC50 (RAW264.7 [30])
active: Activity (RAW264.7 [2]) | Activity (RAW264.7 [3]) | Activity (RAW264.7 [5]) | Activity (RAW264.7 [6]) | Activity (RAW264.7 [7]) | Activity (RAW264.7 [9]) | Activity (RAW264.7 [11]) | Activity (RAW264.7 [12]) | Activity (RAW264.7 [13]) | Activity (RAW264.7 [14]) | Activity (RAW264.7 [15]) | Activity (RAW264.7 [16]) | Activity (RAW264.7 [17]) | Activity (RAW264.7 [18]) | Activity (RAW264.7 [19]) | Activity (RAW264.7 [20]) | Activity (RAW264.7 [22]) | Activity (RAW264.7 [23]) | Activity (RAW264.7 [26]) | Activity (RAW264.7 [28]) | Activity (RAW264.7 [31]) | Activity (RAW264.7 [32]) | Activity (RAW264.7 [34]) | Activity (RAW264.7 [35]) | Activity (RAW264.7 [36]) | Activity (RAW264.7 [38]) | Activity (RAW264.7 [39])
